“Also recorded” adds a separate entry of the source.
Tests used:
[1] = test system: startle reflex and its prepulse inhibition in rats pretreated with the psychostimulant phencyclidine (PCP); assay: PCP-induced PPI disruption, startle reflex and prepulse inhibition in rats pretreated with phencyclidine; type: in vivo; details: FIG. 2; for effect on PCP-disrupted prepulse inhibition (PPI): antagonist 20 min and PCP 10 min before measurement, vs vehicle+PCP
Experimental: (§1) In order to study the effect of alpha2-antagonists on startle reflex and its prepulse-inhibition, groups of rats (n=10/group) were pre-treated with the alpha2C-antagonist or vehicle 20 min before measurement of the acoustic startle reactivity and PPI in a test system designed for startle studies (SR-LAB, San Diego Instruments, CA, USA). In a subsequent experiment the effects of the alpha2-adrenoceptor subtype selective alpha2C-antagonist and or the subtype non-selective antagonist atipamezole (Haapalinna, A. et al., Naunyn-Schmiedeberg's Arch. Pharmacol. 356 (1997) 570-582) on PCP-induced PPI-disruption was studied. The antagonists were given 20 min, and PCP or vehicle 10 min before start of the startle measurements. The method otherwise corresponds to the procedure described in Sallinen, J. et al., J. Neurosci. 18 (1998) 3035-42.

[2] = test system: startle reflex and its prepulse inhibition in rats; assay: Acoustic startle reactivity and prepulse inhibition (PPI) in rats; type: in vivo; details: compound given 20 min before measurement, vs vehicle, FIG. 1
Experimental: as §1

Row | Structure (SMILES) | effect on PCP-disrupted prepulse inhibition (PPI) [1] | effect on prepulse inhibition (PPI, sensorimotor gating) [2] | effect on startle reflex (startle reactivity to intense pulses without prepulses) [2] | effect of PCP on prepulse inhibition (PPI) ([1]; PCP given 10 min before measurement) | effect on startle reactivity per se ([1]; PCP experiment)
1 | CN1CCN(c2ccc(Nc3c4ccccc4nc4ccccc34)cc2)CC1 [JP-1302, acridin-9-yl-[4-(4-methylpiperazin-1-yl)-phenyl]amine] | effectively counteracted; also recorded: especially clearly seen in the presence of PCP | enhanced sensorimotor gating (prepulse inhibition %); also recorded: increased PPI dose-dependently and effectively | without significantly affecting the startle reactivity; also recorded: did not affect the startle reflex per se |  | 
2 | c1ccc(C2(N3CCCCC3)CCCCC2)cc1 [PCP, phencyclidine] |  |  |  | clearly disrupted the PPI | 
3 | CCC1(c2cnc[nH]2)Cc2ccccc2C1 [atipamezole] | had no effect on the PPI phenomenon |  |  |  | increased significantly the startle reactivity per se

Reference: patent US20050203100A1, “Use of an alfa2-adrenoreceptor antagonist for cns-related diseases” (priority 2002, published 2005)
